Holding throughout (assay): NCI anticancer screen, dose series, 48 h
The test system of assay [1] is A549 NSCLC.
Assay [2] concerns HCT-116 colon.
Assay [3] has as its system HOP-62 NSCLC.
Assay [4] deals with HT29 colon.
For assay [5], the system named is K-562 leukemia.
Assay [6] has as its system LOX IMVI melanoma.
Assay [7] relates to NCI-H522 lung.
Assay [8] has as its system SF-295 CNS.
Assay [9] deals with SK-OV-3 ovarian.
Assay [10] relates to U251 CNS.
The subject of assay [11] is UACC-62 melanoma.
In assay [12] the test system is UO-31 renal.
Assay [13] deals with ACHN renal.
Assay [14] concerns MDA-N.
Assay [15] relates to T-47D breast.

Values joined by “and” are separate entries in the source; they are usually repeats but may differ in a detail not shown here. Identical values can stand only once.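 Where inhibition never reached the appropriate level, the endpoint shown equals the highest concentration tested. Otherwise, values were interpolated linearly from a five-concentration, 48-hour dose response in 96-well plates. Here, GI50 denotes the concentration required for 50% inhibition of growth. Definition used: TGI = concentration required for complete inhibition of growth.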

As to `CN1C(=O)c2ccccc2NC(=O)c2cnn(C)c21`, the TGI in assay [1] is above 100 µM; in [2], above 57.4 µM; in assay [3], above 100 µM; in assay [4], above 100 µM; in assay [5], above 100 µM; in [6], above 100 µM. Besides, the TGI in assay [7], in assay [8], in assay [9], in assay [10], in [11] and in [12] was above 100 µM each time.

For `COCO[C@@H]1C[C@H]2C(O)Nc3ccccc3C(=O)N2C1` (stereo partly drawn), the TGI in assay [1], in assay [13], in assay [3], in assay [4], in assay [5] and in assay [6] was above 100 µM in each case. The TGI in [14], in assay [8], in assay [9], in [15], in [10] and in assay [11] was above 100 µM each time. The TGI in assay [12] was above 100 µM.

Turning to `CN(C)c1ccc(/C=C2/SC(=S)NC2=O)cc1`, the TGI in assay [1], in [13], in [2], in assay [3], in assay [4] and in [5] was above 100 µM in each case. The TGI in assay [6], in assay [14], in assay [7], in assay [8], in [9] and in assay [15] was above 100 µM in each case. Besides, the TGI in assay [10], in assay [11] and in assay [12] was above 100 µM each time.

With `N#C[S-].[Nd+3].c1cnc2c(c1)ccc1cccnc12.c1cnc2c(c1)ccc1cccnc12.c1cnc2c(c1)ccc1cccnc12`, the TGI in [1] was 10.5 µM; in [13], 13 µM; in assay [2], 6.43 µM; in assay [3], 20.6 µM; in assay [4], 20.2 µM; in assay [5] it was above 100 µM. Besides, the TGI is 13.1 µM in assay [6]; 18.1 µM in assay [7]; 0.991 µM in assay [8]; 12.5 µM in assay [9]; 12.4 µM in assay [10]; 5.44 µM in [11]. This compound also came in with a TGI in [12] of 11.2 µM.

For the compound `C=CCc1cc(-c2cc(CC=C)c(O)c(CN(CCCl)CCCl)c2)cc(CN(CCCl)CCCl)c1O`, the TGI was 45.3 µM in [1]; 21.9 µM in assay [13]; 25.3 µM in [2]; 43.5 µM in [3]; 33.3 µM in [4]; above 100 µM in assay [5]. Moreover, the TGI in assay [6] is above 80.8 µM; in [14] it was 35 µM; in assay [7], 27.3 µM; in assay [8], 38.7 µM; in assay [9], 46.9 µM; in assay [15], 24.8 µM. For the same compound, the TGI in [10] was 24.8 µM; in [11], 28.9 µM; in assay [12] it was 32.1 µM.

With `CC1=NN(c2cccc(Cl)c2)C2(SCC(=O)N2c2nc3ccccc3s2)/C1=C\c1ccc(Cl)cc1` (stereo not drawn), the TGI stood at 46.4 µM in [13]; 31.3 µM in assay [2]; 35.3 µM in assay [3]; 42.7 µM in assay [4]; 41.3 µM in assay [5]; 45.2 µM in assay [6]. The TGI in assay [14] was 69.8 µM; in [7] it was 39.2 µM; in [8], 42.7 µM; in [9], 47.3 µM; in assay [15] it was above 100 µM; in [10] it was 28.2 µM. Moreover, the TGI in [12] was determined as 29.5 µM.

Turning to `O=C1C=CC2(O[C@H](c3ccccc3)[C@@H](c3ccccc3)O2)C(SC(=O)c2ccccc2)C1` (stereo partly drawn), the TGI in [1] was 17.4 µM; in assay [13] it was 3.01 µM; in [2], 1.53 µM; in assay [3], 3.31 µM; in [4], 3.89 µM; in [5] it was above 100 µM. For the same compound, the TGI in assay [6] is 2.33 µM; in assay [14], 3.32 µM; in assay [8] it was 6.85 µM; in assay [9], 7.01 µM; in assay [15], 7.89 µM; in assay [10], 2.9 µM. Further, the figures for the TGI in [11] and in assay [12] were 5.84 µM and 2.66 µM, respectively.

With `O=c1[nH]c(Nc2ccc(F)c(Cl)c2)nc2nc[nH]c12`, the TGI in assay [1], in assay [13], in [2], in [3], in assay [4] and in assay [6] was above 100 µM each time. The TGI in assay [14], in assay [7], in assay [8], in assay [9], in assay [15] and in assay [10] was above 100 µM each time. For the same compound, the TGI in assay [11] and in assay [12] was above 100 µM throughout.

With `CC1=C(C)C(=O)O[C@@H]([C@](C)(O)[C@]2(O)CC[C@@]3(O)[C@@H]4C[C@H]5O[C@]56[C@@H](O)C=CC(=O)[C@]6(C)[C@H]4CC[C@]23C)C1`, the TGI in assay [1] was 24 µM and 30.9 µM; in assay [2] it was 2.88 µM; in assay [3], 11.4 µM and 14.6 µM; in assay [4], 5.35 µM; in [5] it was 2.62 µM and 15 µM; in [6], 2.64 µM. The TGI in assay [7] was 2.16 µM and 1 µM; in assay [8] it was 19.5 µM; in assay [9] it was 14.7 µM and 20.4 µM; in [10], 6.71 µM and 6.54 µM; in [11] it was 3.41 µM and 3 µM; in [12] it was 6.36 µM. The GI50 is 1.28 µM in assay [3]; 0.126 µM and 0.0515 µM in [5]; 0.0804 µM and 0.0721 µM in assay [7]; 2.51 µM in assay [10]; 0.288 µM and 0.0848 µM in [11].

For the compound `Cc1ccc(CC(=O)Nc2ccc(NC(=O)/C=C/NC(=O)/C=C/c3ccc(-c4ccccc4)cc3)cc2C(=O)c2ccccc2)cc1`, the TGI in assay [1] was 4.32 µM; in [13], 10.9 µM; in assay [2] it was 2.96 µM; in assay [3], 4.15 µM; in assay [4], 20.3 µM; in assay [5], above 100 µM. The TGI in [6] was determined as 4.84 µM; in [14], 6.61 µM; in assay [8], 3.05 µM; in [9], 4.36 µM; in assay [15] it was 18 µM; in assay [10], 4.35 µM. Besides, the results for the TGI in assay [11] and in assay [12] were 4.87 µM and 13.7 µM, respectively.

For `Cc1cc(NC(=S)Nc2ccccc2)c(NC(=S)Nc2ccccc2)cc1C`, the TGI is above 100 µM in assay [1]; above 100 µM in assay [2]; above 100 µM in assay [3]; above 100 µM in [4]; 41.2 µM in assay [5]; above 100 µM in [6]. The TGI is 32.4 µM in assay [7]; 62.2 µM in [8]; above 75 µM in assay [9]; above 63.4 µM in assay [10]; above 100 µM in assay [11]; above 74.6 µM in assay [12].

Consider `Nc1ccccc1CCCC(=O)O`, for which the TGI in [1], in assay [13], in [2], in [3], in assay [4] and in [5] was above 100 µM in each case. The TGI in assay [6], in [14], in assay [7], in [8], in [9] and in assay [15] was above 100 µM each time. Besides, the TGI in assay [10], in assay [11] and in assay [12] was above 100 µM throughout.

For `COCc1nc2c(OC)cc(-c3nc4nc(N5CCN(C)CC5)ccc4[nH]3)c(OC)c2[nH]1`, the TGI in assay [1], in [13], in assay [2], in assay [3], in [4] and in assay [5] was above 100 µM in each case. The TGI in assay [6], in [14], in [7], in assay [8], in assay [9] and in [15] was above 100 µM throughout. The TGI in assay [10], in [11] and in [12] was above 100 µM throughout.

`COc1cc2c(cc1OCCCOc1cc(-c3ccc(F)cc3)nc(C)n1)N=C[C@@H]1CCCN1C2=O`: the TGI in assay [1] was 43 µM; in [13], 30.4 µM; in assay [2], 30.6 µM; in assay [4], above 100 µM; in assay [6] it was 28.3 µM; in assay [7] it was 37.2 µM. For the same compound, the TGI in assay [8] was 31 µM; in assay [9] it was 62.7 µM; in assay [15], above 100 µM; in assay [10], 28.7 µM; in [11] it was 28.7 µM; in assay [12], 38.7 µM.

For `CCC(=O)Nc1ccc(N=Cc2cccc(Oc3ccccc3)c2)cc1`, the TGI in assay [1], in [13], in assay [2], in [3], in assay [4] and in assay [5] was above 100 µM each time. Also, the TGI in assay [6], in [14], in assay [7], in [8], in assay [9] and in assay [15] was above 100 µM throughout. In addition, the TGI in assay [11] and in assay [12] was above 100 µM throughout.

On to `Cn1c2ccccc2c2c(-c3ccccc3)[n+]3ccccc3nc21`, for which the TGI is above 100 µM in assay [1]; above 100 µM in assay [13]; 68 µM in [3]; above 100 µM in assay [4]; above 100 µM in assay [5]; 37.4 µM in assay [6]. Moreover, the TGI in assay [7] was 69.7 µM; in [8], above 100 µM; in assay [9], above 100 µM; in assay [15], above 100 µM; in [10] it was 64.7 µM; in assay [11], 39.3 µM. Also, the TGI in assay [12] is above 100 µM.

Consider `COC(=O)CCC(=O)CC(=O)C1=NS(=O)(=O)c2nc(S(N)(=O)=O)c(Cl)cc2N1`, for which the TGI in assay [1], in [13], in assay [2], in [3], in assay [4] and in assay [5] was above 100 µM in each case. Further, the TGI in [6], in assay [7], in assay [8], in assay [9], in assay [10] and in [11] was above 100 µM each time. The TGI in [12] was above 100 µM.

Regarding `CC(C)=CC1C(COC(=O)c2cc3c(cc2Cl)OCO3)C1(C)C` (stereo not drawn), the TGI in assay [1], in [13], in [2], in assay [3], in assay [4] and in assay [5] was above 100 µM each time. For the same compound, the TGI in assay [6] was 50 µM; in assay [14], above 100 µM; in [7] it was 46.4 µM; in [8], above 100 µM; in assay [15] it was above 100 µM; in assay [10], 86 µM. Besides, the TGI in assay [11] and in [12] was above 100 µM each time.

With `COc1cc(O)cc(/C=C/c2ccc(O)cc2)c1`, the TGI was above 100 µM in assay [1]; 31.2 µM in [13]; above 100 µM in [2]; above 100 µM in assay [3]; above 100 µM in assay [4]; 98.2 µM in assay [5]. In addition, the TGI in assay [7] is above 100 µM; in assay [8] it was 84.3 µM; in assay [9], above 100 µM; in [15] it was above 100 µM; in assay [10], 81.4 µM; in [11], 60.5 µM. For the same compound, the TGI in assay [12] is above 100 µM.

On to `CC1C(=O)OC2CC[N+]3(CC(=O)c4ccc(Br)cc4)CC=C(COC(=O)C(C)(O)C1(C)O)C23` (stereo not drawn), for which the TGI in assay [1], in [2], in [3], in assay [4], in [5] and in assay [6] was above 375 µM each time. Besides, the TGI in assay [7], in assay [8], in assay [9], in assay [10], in assay [11] and in [12] was above 375 µM each time.

Values taken from PubChem BioAssay (NCI).
